Source: US20060100243A1 (priority 2004, published 2006)
Entries after “also recorded” stand apart in the source; their conditions may differ. Where two headings read alike, the source gives them in different places.

Legend:
[1] = target: T1, recombinant human dopamine transporter (Homo sapiens, UniProt Q01959); experiment: [125I]RTI-55 binding, dopamine transporter in HEK 293 cells; conditions: for Ki: RR/SS racemates table, HEK 293 cells
T1 construct: expressed in transfected cells

[2] = target: T1, recombinant human dopamine transporter; experiment: dopamine reuptake inhibition in HEK 293 cells; format: cell-based; conditions: for IC50: RR/SS racemates table, HEK 293 cells; for NE/DA REUPTAKE: ratio of NE/DA reuptake IC50, selectivity for dopamine over norepinephrine transporter
[3] = target: T2, recombinant human norepinephrine transporter (Homo sapiens, UniProt P23975); experiment: biochemical; format: binding
T2 construct: expressed in transfected cells
T2 sequence (P23975 whole entry): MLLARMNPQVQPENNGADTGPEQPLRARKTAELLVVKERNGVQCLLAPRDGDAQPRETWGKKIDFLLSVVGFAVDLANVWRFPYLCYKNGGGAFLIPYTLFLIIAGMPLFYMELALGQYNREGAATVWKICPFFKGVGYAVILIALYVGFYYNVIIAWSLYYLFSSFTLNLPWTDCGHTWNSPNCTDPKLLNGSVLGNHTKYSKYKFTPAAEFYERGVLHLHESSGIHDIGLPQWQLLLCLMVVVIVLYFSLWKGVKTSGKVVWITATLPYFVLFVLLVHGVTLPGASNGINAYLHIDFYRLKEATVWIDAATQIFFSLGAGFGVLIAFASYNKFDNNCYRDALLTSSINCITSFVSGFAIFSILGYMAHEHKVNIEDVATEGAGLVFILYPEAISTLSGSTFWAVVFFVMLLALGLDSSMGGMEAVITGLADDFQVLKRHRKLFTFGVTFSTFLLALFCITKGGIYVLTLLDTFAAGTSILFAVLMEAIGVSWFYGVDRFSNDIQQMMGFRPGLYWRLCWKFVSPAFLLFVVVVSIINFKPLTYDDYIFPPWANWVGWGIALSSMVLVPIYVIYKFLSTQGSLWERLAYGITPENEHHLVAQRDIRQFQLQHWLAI

[4] = target: T2, recombinant human norepinephrine transporter; experiment: cell-based
male Swiss-Webster mice = experiment: dose response study of induced locomotor stimulation; conditions: for time of occurrence of stimulant effects following injection: at the active doses
[5] = target: T3, recombinant human serotonin transporter (Homo sapiens, UniProt P31645); experiment: biochemical; format: binding; conditions: for Ki: SEROTONIN [I125]-RTI-55 BINDING (Ki)
T3 construct: expressed in transfected cells
T3 sequence (P31645 whole entry): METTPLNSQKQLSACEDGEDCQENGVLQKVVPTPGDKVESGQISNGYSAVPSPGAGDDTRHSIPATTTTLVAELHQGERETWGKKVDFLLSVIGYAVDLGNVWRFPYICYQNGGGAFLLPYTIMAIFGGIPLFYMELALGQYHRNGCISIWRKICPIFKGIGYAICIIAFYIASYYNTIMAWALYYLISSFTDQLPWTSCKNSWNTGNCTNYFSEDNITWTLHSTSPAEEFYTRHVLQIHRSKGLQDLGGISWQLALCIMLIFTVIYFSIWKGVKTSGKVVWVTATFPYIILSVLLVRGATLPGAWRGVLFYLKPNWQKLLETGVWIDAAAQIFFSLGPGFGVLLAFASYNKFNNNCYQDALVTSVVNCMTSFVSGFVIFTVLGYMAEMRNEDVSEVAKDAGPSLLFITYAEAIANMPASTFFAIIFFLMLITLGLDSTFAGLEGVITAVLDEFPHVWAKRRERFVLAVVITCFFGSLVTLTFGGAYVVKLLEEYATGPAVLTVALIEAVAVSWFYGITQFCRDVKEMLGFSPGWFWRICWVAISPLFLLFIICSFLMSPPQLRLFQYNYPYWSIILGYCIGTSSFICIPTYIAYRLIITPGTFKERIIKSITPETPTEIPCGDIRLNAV

[6] = target: T3, recombinant human serotonin transporter; experiment: serotonin (5HT) reuptake inhibition in HEK 293 cells; format: cell-based; conditions: SEROTONIN 5HT REUPTAKE (IC50), HEK 293 cells
[7] = prescribed doses; cited from earlier work
[8] = DOPAMINE [I125]-RTI-55 BINDING (Ki)
[9] = NOREPINEPHRINE [I125]-RTI-55 BINDING (Ki)

T1 sequence (Q01959 whole entry): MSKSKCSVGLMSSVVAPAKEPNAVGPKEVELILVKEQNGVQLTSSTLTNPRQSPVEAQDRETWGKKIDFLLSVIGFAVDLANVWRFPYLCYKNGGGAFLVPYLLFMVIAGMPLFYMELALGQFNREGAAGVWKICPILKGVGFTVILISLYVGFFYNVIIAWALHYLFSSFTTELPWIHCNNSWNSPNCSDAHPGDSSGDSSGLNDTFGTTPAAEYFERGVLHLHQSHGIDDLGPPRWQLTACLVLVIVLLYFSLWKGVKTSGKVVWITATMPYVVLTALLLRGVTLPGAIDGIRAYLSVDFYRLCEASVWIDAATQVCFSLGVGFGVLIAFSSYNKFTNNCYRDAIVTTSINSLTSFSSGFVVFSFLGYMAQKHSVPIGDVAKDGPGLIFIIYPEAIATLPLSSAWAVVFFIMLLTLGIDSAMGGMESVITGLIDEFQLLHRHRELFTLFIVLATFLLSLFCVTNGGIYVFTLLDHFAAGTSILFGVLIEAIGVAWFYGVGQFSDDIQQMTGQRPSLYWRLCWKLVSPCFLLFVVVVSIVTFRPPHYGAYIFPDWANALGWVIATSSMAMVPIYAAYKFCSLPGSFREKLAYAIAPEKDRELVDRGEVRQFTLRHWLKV

Compound	time of occurrence of stimulant effects following injection (male Swiss-Webster mice; mice, IP)	Ki [5]	IC50 ([6]; RR/SS racemates table)	Ki [1, 8]	IC50 ([2]; DOPAMINE DA REUPTAKE (IC50))	NE/DA REUPTAKE [2]	Ki [3, 9]	IC50 ([4]; NORE[…] REUPTAKE (IC50))	also measured
CC(C)CC(c1ccc(Cl)cc1)C1CCCCN1 (racemic) [Sample D]	at least 20 minutes								Ki ([1]; read-out: DOPAMINE [I125]-RTI-55 BINDING (Ki)): 0.016 ± 0.004 µM; potency at binding to the dopamine transporter and blocking dopamine reuptake ([1]; in words, binding and reuptake, compared with MPH / other samples): enhanced potency; also recorded: most potent; IC50 ([2]; read-out: DOPAMINE DA REUPTAKE (IC50)): 0.0086 ± 0.0029 µM; Ki ([3]; RR/SS racemates table, HEK 293 cells, read-out: NOREPINEPHRINE [I125]-RTI-55 BINDING (Ki)): 0.84 ± 0.13 µM; IC50 ([4]; RR/SS racemates table, HEK 293 cells, read-out: NOREPINEPHRINE NE REUPTAKE (IC50)): 0.12 ± 0.04 µM; duration of stimulant effects (male Swiss-Webster mice; mice, IP, 3 mg/kg): up to 4 hours; duration of stimulant effects (male Swiss-Webster mice; mice, IP, 10 mg/kg): ≤ 5 h; duration of stimulant effects (male Swiss-Webster mice; mice, IP, 30 mg/kg): over 8 hours
COC(=O)C(c1ccccc1)C1CCCCN1 (centres unmarked) [MPH, methylphenidate, reference compound]	≤ 10 min	40 ± 8 µM	55 ± 16 µM						binding to or reuptake at the serotonin transporter [5]: neither MPH nor the MPH analogs demonstrated significant binding to or reuptake at the serotonin transporter; IC50 ([6]; RS/SR racemates table): 55 ± 16 µM; Ki ([3]; NOREPINEPHRINE [I125]-RTI-55 BINDING (Ki), RR/SS racemates table, HEK 293 cells): 1.8 ± 0.8 µM; Ki ([3]; NOREPINEPHRINE [I125]-RTI-55 BINDING (Ki), RS/SR racemates table, HEK 293 cells): 1.8 ± 0.8 µM; IC50 ([4]; NORE[…] REUPTAKE (IC50), RR/SS racemates table, HEK 293 cells): 0.038 ± 0.004 µM; IC50 ([4]; NORE[…] REUPTAKE (IC50), RS/SR racemates table, HEK 293 cells): 0.038 ± 0.004 µM; time of maximum drug concentration after oral administration [7]: about two hours; duration of stimulant effects (male Swiss-Webster mice; mouse, in vivo): up to 4 hours
Clc1ccc(C(Cc2ccccc2)C2CCCCN2)cc1 (single isomer, unassigned) [J]		1.1 ± 0.2 µM	1.1 ± 0.2 µM	0.44 ± 0.11 µM	0.37 ± 0.09 µM	7.8	2.9 ± 0.8 µM	2.9 ± 0.6 µM	selectivity for the dopamine transporter over the norepinephrine transporter ([2]; in words, from binding and reuptake values): enhanced selectivity
COC(=O)[C@H]1[C@@H](OC(=O)c2ccccc2)C[C@@H]2CC[C@H]1N2C [cocaine]	≤ 10 min								period of maximal stimulant effects (male Swiss-Webster mice; mice, IP, 20 mg/kg): ≤ 30 min; duration of stimulant effects (male Swiss-Webster mice; mice, IP, 10, 20, and 40 mg/kg): up to 2 hours
CC(C)CC(c1ccc(C(C)C)cc1)C1CCCCN1 (racemic) [P]		3.3 ± 0.6 µM	4.7 ± 0.7 µM	3.3 ± 0.6 µM	4 ± 0.4 µM	1.8	2.5 ± 0.6 µM	7.1 ± 1.8 µM	
